Measured values as given in patent publication US9920061B2, “Imidazo[1,5-A]pyrimidinyl carboxamide compounds and their use in the treatment of medical disorders” (Lysosomal Therapeutics Inc., priority 2016, dated 2018).
In brackets after ≈: the same amount, converted by molar mass. Read-outs that look alike come from different tables or passages of the source.

Assays:
[1] = Compound solubility in water; format: physicochemical
[2] = molecular target: T1, glucocerebrosidase (Gcase) (Homo sapiens, UniProt P04062); assay: Glucocerebrosidase (Gcase) activation assay, 4-methylumbelliferyl-beta-D-glucopyranoside substrate, with saposin C; format: biochemical
T1 sequence (P04062 40-536): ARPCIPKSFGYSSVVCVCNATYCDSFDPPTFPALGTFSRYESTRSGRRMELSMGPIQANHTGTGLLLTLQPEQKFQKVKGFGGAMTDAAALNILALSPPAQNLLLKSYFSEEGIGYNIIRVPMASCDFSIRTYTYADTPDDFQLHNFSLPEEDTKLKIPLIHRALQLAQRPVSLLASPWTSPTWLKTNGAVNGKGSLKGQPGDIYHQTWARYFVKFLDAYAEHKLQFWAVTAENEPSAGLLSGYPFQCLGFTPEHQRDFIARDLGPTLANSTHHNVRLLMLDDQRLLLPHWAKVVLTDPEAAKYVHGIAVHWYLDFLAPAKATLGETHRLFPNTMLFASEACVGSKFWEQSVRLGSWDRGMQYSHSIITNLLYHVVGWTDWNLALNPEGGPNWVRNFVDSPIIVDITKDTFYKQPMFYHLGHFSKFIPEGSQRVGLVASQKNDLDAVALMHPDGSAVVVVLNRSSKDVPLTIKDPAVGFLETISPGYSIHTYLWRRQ
Procedure: The ability of exemplary compounds to activate glucocerebrosidase (Gcase) was measured.
A 484 μL aliquot of a 1.0 mg/mL solution of phosphatidylserine (PS) (Sigma P7769) in chloroform was evaporated under a stream of nitrogen for 1 hour. The lipid film was dissolved over 4 minutes of vigorous vortexing in 40 mL of 176 mM K2HPO4/50 mM citric acid (pH 4.7) containing 7.5 μL of triton X-100, resulting in a mixed micellar preparation with a composition of 0.32 mM triton and 0.37 mol % PS. 4-Methylumbelliferyl-beta-D-glucopyranoside (ACROS-337025000) was dissolved in the micellar solution to a final concentration of 2 mM for use as the reaction substrate.
Test compounds were diluted to the desired concentrations with dimethylsulfoxide (DMSO) from 10 mM stocks, and 0.41 μL of the DMSO compound mixture was added to 100 μL of micellar solution containing 10 nM GCase and 100 nM saposin C (Enzo ALX-201-262-C050). Pre-incubation was allowed to occur for 30 minutes at room temperature, after which the reaction was initiated by combining 25 μL of substrate solution with 25 μL of compound/GCase/saposin mixture. The reaction proceeded for 15 minutes at room temperature and was stopped by adding 150 μL of 1M glycine, pH 12.5. The endpoint of the reaction was monitored by measuring fluorescence intensity (excitation: 365 nm; emission: 440 nm) on a SpectraMax i3 instrument (Molecular Devices). Test compounds were screened at 1.0 and 0.1 μM final concentration, and subsequent 8-point dose response curves were obtained using 3-fold dilutions from a maximum final concentration of […].

[3] = 0.1 μM test compound, read-out: Percent Gcase Activation 0.1 μM Test Compound
[4] = 1 μM test compound, read-out: Percent Gcase Activation 1 μM Test Compound
[5] = test compound at 0.1 μM, read-out: Percent Gcase Activation, 0.1 μM Test Compound
[6] = test compound at 1.0 μM, read-out: Percent Gcase Activation, 1 μM Test Compound

Structure (SMILES) | solubility [1] [µg/mL] | activation at 0.1 µM [2, 3] [%] | activation at 1 µM [2, 4] [%] | solubility ([1]; in water) [µg/mL] | activation at 0.1 µM [2, 5] [%] | activation at 1 µM [2, 6] [%]
Cc1cc(-c2cccc3ncoc23)nc2c(C(=O)N[C@@H](C3CC3)C(F)(F)F)ncn12 [IV-18] | – | – | – | 0.4 (≈ 0.963 µM) | > 20 | > 60
COc1c(F)cccc1-c1cc(C)n2cnc(C(=O)NC(C3CC3)C(F)(F)F)c2n1 (stereo not drawn) [IV-63] | – | – | – | 3.1 (≈ 7.34 µM) | 10 to 20 | > 60
CCOc1cccc(-c2cc(C)n3cnc(C(=O)NC(C4CC4)C(F)(F)F)c3n2)n1 (stereo not drawn) [IV-102] | – | – | – | 7.8 (≈ 18.6 µM) | > 20 | > 60
CCc1cc(-c2ccsn2)nc2c(C(=O)NC(C3CC3)C(F)(F)F)ncn12 (stereo not drawn) [IV-106] | – | – | – | 0.6 (≈ 1.52 µM) | > 20 | > 60
CCCCO[C@H]1C[C@H]2CC[C@@H](C1)[C@H]2NC(=O)c1ncn2c(C)cc(COC)nc12 [IV-4] | – | – | – | 16.4 (≈ 40.9 µM) | > 20 | > 60
Cc1cc(-c2ccns2)nc2c(C(=O)N[C@@H](C3CC3)C(F)(F)F)ncn12 [IV-8] | – | – | – | 19.7 (≈ 51.7 µM) | 10 to 20 | > 60
Cc1cc(-c2cccc(F)c2)nc2c(C(=O)N[C@@H](C3CC3)C(F)(F)F)ncn12 [IV-20] | – | – | – | 0.7 (≈ 1.78 µM) | > 20 | > 60
Cc1cc(-c2cnsc2)nc2c(C(=O)NC(C)(C)C)ncn12 [IV-55] | – | – | – | 8.2 (≈ 26 µM) | < 10 | > 60
COc1ccc(F)cc1-c1cc(C)n2cnc(C(=O)NC(C3CC3)C(F)(F)F)c2n1 (stereo not drawn) [IV-71] | – | – | – | 1.5 (≈ 3.55 µM) | > 20 | > 60
Cc1cc(-c2cccc(OC(F)(F)F)n2)nc2c(C(=O)N[C@@H](C)C3CC3)ncn12 [IV-101] | – | – | – | 1.5 (≈ 3.7 µM) | > 20 | > 60
Cc1cc(-c2ccco2)nc2c(C(=O)NC(C3CC3)C(F)(F)F)ncn12 (stereo not drawn) [IV-83] | – | – | – | 1.2 (≈ 3.29 µM) | > 20 | > 60
C#CC(C)(C)NC(=O)c1ncn2c(C)cc(-c3cccc4nccn34)nc12 [IV-24] | – | – | – | 2.5 (≈ 6.98 µM) | < 10 | < 30
Cc1cc(-c2ccc(C#N)s2)nc2c(C(=O)NC(C3CC3)C(F)(F)F)ncn12 (stereo not drawn) [IV-86] | – | – | – | 3.6 (≈ 8.88 µM) | > 20 | > 60
Cc1cc(-c2cccc(C(N)=O)c2)nc2c(C(=O)NC(C3CC3)C(F)(F)F)ncn12 (stereo not drawn) [IV-112] | – | – | – | 1.1 (≈ 2.64 µM) | 10 to 20 | > 60
Cc1cc(-c2cccc(-c3ncccn3)c2)nc2c(C(=O)NC(C3CC3)C(F)(F)F)ncn12 (stereo not drawn) [IV- 61] | – | – | – | 1.1 (≈ 2.43 µM) | > 20 | > 60
CCc1cc(N2CCN(C(C)C)C2=O)nc2c(C(=O)NC(C3CC3)C(F)(F)F)ncn12 (stereo not drawn) [IV-16] | – | – | – | 24.6 (≈ 56.1 µM) | 10 to 20 | > 60

Now from value to compound:

solubility [1] [µg/mL] | activation at 0.1 µM [2, 3] [%] | activation at 1 µM [2, 4] [%] | solubility ([1]; in water) [µg/mL] | activation at 0.1 µM [2, 5] [%] | activation at 1 µM [2, 6] [%] | Structure (SMILES)
24.4 (≈ 94.5 µM) | < 10 | < 30 | – | – | – | Cc1cc(C)n2cnc(C(=O)N[C@@H](C)C3CC3)c2n1 [III-6]
4 (≈ 11.3 µM) | > 20 | > 60 | – | – | – | Cc1cc(C)n2cnc(C(=O)NC(C3CCCCC3)C(F)(F)F)c2n1 (stereo not drawn) [III-15]
6.7 (≈ 15.6 µM) | > 20 | > 60 | – | – | – | Cc1cc(-c2ccccn2)nc2c(C(=O)NC(c3ccc(F)cc3)C(F)(F)F)ncn12 (stereo not drawn) [III-49]
11.6 (≈ 33.1 µM) | > 20 | > 60 | – | – | – | COc1ccccc1-c1cc(C)n2cnc(C(=O)NC(C)C3CC3)c2n1 (stereo not drawn) [III-52]
24.5 (≈ 79.2 µM) | < 10 | < 30 | – | – | – | Cc1cc(-c2cccnc2)nc2c(C(=O)NC(C)(C)C)ncn12 [III-89]
0.9 (≈ 2.4 µM) | 10 to 20 | > 60 | – | – | – | Cc1cc(-c2ccccn2)nc2c(C(=O)N[C@@H](C)c3ccccc3F)ncn12 [III-29]
1.3 (≈ 3.21 µM) | 10 to 20 | > 60 | – | – | – | COc1ccccc1[C@H](C)NC(=O)c1ncn2c(C)cc(-c3ccc(F)cc3)nc12 [III-30]
5.5 (≈ 14.9 µM) | > 20 | > 60 | – | – | – | Cc1cc(OC2CCC2)nc2c(C(=O)NC(C3CC3)C(F)(F)F)ncn12 (stereo not drawn) [III-176]
0.2 (≈ 0.581 µM) | > 20 | > 60 | – | – | – | Cc1cc(-c2cc(F)cc(F)c2)nc2c(C(=O)NC(C)(C)C)ncn12 [III-125]
5.5 (≈ 16.1 µM) | 10 to 20 | > 60 | – | – | – | Cc1cc(-c2nccs2)nc2c(C(=O)NC(C)(C)C3CC3)ncn12 [III-61]
6.9 (≈ 18 µM) | < 10 | > 60 | – | – | – | COc1cc(C)nc2c(C(=O)NC(c3ccc(F)cc3)C(F)(F)F)ncn12 (stereo not drawn) [III-20]
24.3 (≈ 66.3 µM) | 10 to 20 | > 60 | – | – | – | Cc1cc(C)n2cnc(C(=O)NC(c3ccc(F)cc3)C(F)(F)F)c2n1 (stereo not drawn) [III-16]
1.4 (≈ 4.14 µM) | > 20 | > 60 | – | – | – | COc1cccc(-c2cc(C)n3cnc(C(=O)NC(C)(C)C)c3n2)c1 [III-127]
2.9 (≈ 7.66 µM) | > 20 | > 60 | – | – | – | COc1cccc(-c2cc(C)n3cnc(C(=O)NC(C)C(F)(F)F)c3n2)c1 (stereo not drawn) [III-167]
1.5 (≈ 4.01 µM) | > 20 | > 60 | – | – | – | C#CC(C)(C)NC(=O)c1ncn2c(C)cc(-c3cccc(OC4CC4)c3)nc12 [III-186]
28.1 (≈ 67.3 µM) | < 10 | < 30 | – | – | – | Cc1cc(-c2ccccc2C(N)=O)nc2c(C(=O)NC(C3CC3)C(F)(F)F)ncn12 (stereo not drawn) [III-154]
4.9 (≈ 13.8 µM) | < 10 | 30 to 60 | – | – | – | Cc1cc(-c2ccc(Cl)nc2)nc2c(C(=O)N[C@@H](C)C3CC3)ncn12 [III-75]
1.3 (≈ 3.65 µM) | > 20 | > 60 | – | – | – | Cc1cc(-c2cc(F)cc(F)c2)nc2c(C(=O)N[C@@H](C)C3CC3)ncn12 [III-111]
34.1 (≈ 107 µM) | < 10 | < 30 | – | – | – | COCCOc1cc(C)n2cnc(C(=O)N[C@@H](C)C3CC3)c2n1 [III-128]
1.4 (≈ 3.57 µM) | > 20 | > 60 | – | – | – | CCOc1cccc(-c2cc(C)n3cnc(C(=O)NC(C)C(F)(F)F)c3n2)c1 (stereo not drawn) [III-168]
19.3 (≈ 47.4 µM) | < 10 | < 30 | – | – | – | CO[C@H]1CC[C@H](C(C)(C)NC(=O)c2ncn3c(C)cc(-c4cccnc4)nc23)CC1 [III-73]
